Among the data in patent US8859776B2, “Substituted piperidines that increase p53 activity and the uses thereof” (Merck Sharp & Dohme Corp., priority 2009, dated 2014) are IC50 values, retold here.

HDM2 protein, sequence (Q00987 whole entry): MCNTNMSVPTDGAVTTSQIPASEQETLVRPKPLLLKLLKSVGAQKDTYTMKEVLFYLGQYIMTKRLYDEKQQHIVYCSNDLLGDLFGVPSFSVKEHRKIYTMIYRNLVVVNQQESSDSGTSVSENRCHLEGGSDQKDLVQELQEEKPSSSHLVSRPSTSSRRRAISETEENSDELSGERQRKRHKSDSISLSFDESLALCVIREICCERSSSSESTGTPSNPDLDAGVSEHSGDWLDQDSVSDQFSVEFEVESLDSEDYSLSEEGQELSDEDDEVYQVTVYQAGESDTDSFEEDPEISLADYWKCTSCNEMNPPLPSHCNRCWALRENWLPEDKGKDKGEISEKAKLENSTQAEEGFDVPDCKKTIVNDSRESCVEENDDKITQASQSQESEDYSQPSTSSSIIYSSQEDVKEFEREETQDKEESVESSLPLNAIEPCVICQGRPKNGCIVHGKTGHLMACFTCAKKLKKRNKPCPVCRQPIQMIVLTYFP

This assay deals with HDM2 protein (Homo sapiens, UniProt Q00987). In words: fluorescence polarization assay for HDM2 inhibitory activity. Type of assay: binding. The note with it: read-out: FP (IC 50 uM). An excerpt:
The inventive compounds can readily be evaluated to determine activity at the HDM2 protein by known methods such as the fluorescence polarization screening assay that measures the inhibitory concentration that achieves 50% of maximal activity (FP IC50) and the dissociation constant for inhibitor binding (FP Ki). [Zhang et al., J. Analytical Biochemistry 331: 138-146 (2004)].
For the compound `CCC[C@H]1N(C(=O)c2cnccc2C(F)(F)F)CCC[C@@]1(Oc1csc(C(F)(F)F)c1)C(=O)N1CCC(C#N)(c2ccccc2OCCCCC(=O)O)CC1` [Compound A4], the IC50 worked out at 0.014 µM.

For `CCC[C@H]1N(C(=O)c2cnccc2C(F)(F)F)CCC[C@@]1(Oc1csc(C(F)(F)F)c1)C(=O)N1CCC(c2nn[nH]n2)(c2ccccc2OC)CC1` [Compound A54], the IC50 was found to be 0.019 µM.

`CCC[C@H]1N(C(=O)c2cnccc2C(F)(F)F)CCC[C@@]1(Oc1csc(C(F)(F)F)c1)C(=O)N1CCC(c2ccccc2CCc2nnn[nH]2)CC1` [Compound A133, (4-(2-(2-(1H-tetrazol-5-yl)ethyl)phenyl)piperidin-1-yl)((2R,3S)-2-propyl-1-(4-(trifluoromethyl)nicotinoyl)-3-(5-(trifluoromethyl)thiophen-3-yloxy)piperidin-3-yl)methanone]: the IC50 came out at 0.011 µM.

With `CCC[C@H]1N(C(=O)c2cnccc2C(F)(F)F)CCC[C@@]1(Oc1csc(C(F)(F)F)c1)C(=O)N1CCC(c2ccccc2OCCCC(=O)NS(=O)(=O)C2CC2)CC1` [Compound A2], the IC50 was determined as 0.009 µM.

On to `CCC[C@H]1N(C(=O)c2cnccc2C(F)(F)F)CCC[C@@]1(Oc1ccc(C(F)(F)F)cc1)C(=O)N1CCC(C#N)(c2ccccc2CCC(=O)O)CC1` [Compound A83], for which the IC50 is 0.013 µM.

As for `CCC[C@H]1N(C(=O)c2ncccc2C(F)(F)F)CCC[C@@]1(Oc1csc(C(F)(F)F)c1)C(=O)N1CCC(O)(c2ccccc2O[C@@H]2CC[C@](C)(C(=O)NS(C)(=O)=O)C2)CC1` [Compound A145], the IC50 turned out to be 0.008 µM.

For `CCC[C@H]1N(C(=O)c2ncccc2C(F)(F)F)CCC[C@@]1(Oc1csc(C(F)(F)F)c1)C(=O)N1CCC(O)(c2ccccc2OCCCP(=O)(O)O)CC1` [Compound A89, 3-(2-(4-hydroxy-1-((2R,3S)-2-propyl-1-(3-(trifluoromethyl)picolinoyl)-3-(5-(trifluoromethyl)thiophen-3-yloxy)piperidine-3-carbonyl)piperidin-4-yl)phenoxy)propylphosphonic acid], the IC50 was found to be 0.011 µM.
